The CheMixHub viscosity set
± gives the uncertainty stated by the source.

Assay: xn = mol fraction of the nth substance listed

ClCCCl + CCCCO
viscosity [mPa·s], 101 kPa
Conditions | x2 = 0.0969 | x2 = 0.2052 | x2 = 0.3178 | x2 = 0.4683 | x2 = 0.5618 | x2 = 0.6768 | x2 = 0.856
303.15 K | 0.7121 ± 0.019 | 0.7449 ± 0.019 | 0.8081 ± 0.02 | 0.9418 ± 0.022 | 1.062 ± 0.024 | 1.272 ± 0.027 | 1.744 ± 0.034
313.15 K | 0.6205 ± 0.017 | 0.6427 ± 0.018 | 0.692 ± 0.018 | 0.7892 ± 0.02 | 0.8734 ± 0.021 | 1.036 ± 0.023 | 1.378 ± 0.028
323.15 K | 0.5584 ± 0.017 | 0.571 ± 0.017 | 0.6061 ± 0.017 | 0.6791 ± 0.018 | 0.7447 ± 0.019 | 0.8711 ± 0.021 | 1.123 ± 0.024

ClCCl + Cc1ccccc1C
101 kPa
Conditions | viscosity [mPa·s]
293.15 K, x1 = 0.3503 | 0.679 ± 0.018
293.15 K, x1 = 0.4307 | 0.648 ± 0.017
293.15 K, x1 = 0.4992 | 0.623 ± 0.016
293.15 K, x1 = 0.5657 | 0.594 ± 0.015
293.15 K, x1 = 0.6558 | 0.561 ± 0.015
293.15 K, x1 = 0.7632 | 0.521 ± 0.014
293.15 K, x1 = 0.8524 | 0.49 ± 0.013
298.15 K, x1 = 0.2305 | 0.677 ± 0.018
298.15 K, x1 = 0.3611 | 0.634 ± 0.016
298.15 K, x1 = 0.449 | 0.602 ± 0.016
298.15 K, x1 = 0.5343 | 0.572 ± 0.015
298.15 K, x1 = 0.6293 | 0.542 ± 0.014
298.15 K, x1 = 0.696 | 0.519 ± 0.014
298.15 K, x1 = 0.7684 | 0.494 ± 0.013
298.15 K, x1 = 0.826 | 0.476 ± 0.012
298.15 K, x1 = 0.8658 | 0.465 ± 0.012
303.15 K, x1 = 0.236 | 0.644 ± 0.017
303.15 K, x1 = 0.3688 | 0.602 ± 0.016
303.15 K, x1 = 0.4846 | 0.561 ± 0.015
303.15 K, x1 = 0.5645 | 0.531 ± 0.014
303.15 K, x1 = 0.6373 | 0.507 ± 0.013
303.15 K, x1 = 0.7091 | 0.483 ± 0.013
303.15 K, x1 = 0.7766 | 0.462 ± 0.012
303.15 K, x1 = 0.8368 | 0.444 ± 0.012
303.15 K, x1 = 0.861 | 0.437 ± 0.011

ClCCl + CCCO
Conditions | viscosity [mPa·s]
298.15 K, 101 kPa, x2 = 0.05 | 0.48 ± 0.006
298.15 K, 101 kPa, x2 = 0.1 | 0.535 ± 0.007
298.15 K, 101 kPa, x2 = 0.1002 | 0.44 ± 0.011
298.15 K, 101 kPa, x2 = 0.15 | 0.588 ± 0.007
298.15 K, 101 kPa, x2 = 0.1991 | 0.487 ± 0.011
298.15 K, 101 kPa, x2 = 0.2 | 0.639 ± 0.007
298.15 K, 101 kPa, x2 = 0.2496 | 0.496 ± 0.011
298.15 K, 101 kPa, x2 = 0.25 | 0.689 ± 0.007
298.15 K, 101 kPa, x2 = 0.2978 | 0.528 ± 0.011
298.15 K, 101 kPa, x2 = 0.3 | 0.74 ± 0.008
298.15 K, 101 kPa, x2 = 0.35 | 0.792 ± 0.008
298.15 K, 101 kPa, x2 = 0.3938 | 0.6 ± 0.011
298.15 K, 101 kPa, x2 = 0.4 | 0.846 ± 0.008
298.15 K, 101 kPa, x2 = 0.45 | 0.904 ± 0.009
298.15 K, 101 kPa, x2 = 0.4603 | 0.668 ± 0.011
298.15 K, 101 kPa, x2 = 0.498 | 0.716 ± 0.011
298.15 K, 101 kPa, x2 = 0.5 | 0.966 ± 0.009
298.15 K, 101 kPa, x2 = 0.55 | 1.032 ± 0.009
298.15 K, 101 kPa, x2 = 0.589 | 0.843 ± 0.012
298.15 K, 101 kPa, x2 = 0.6 | 1.104 ± 0.01
298.15 K, 101 kPa, x2 = 0.65 | 1.182 ± 0.01
298.15 K, 101 kPa, x2 = 0.6943 | 1.043 ± 0.013
298.15 K, 101 kPa, x2 = 0.7 | 1.266 ± 0.011
298.15 K, 101 kPa, x2 = 0.75 | 1.357 ± 0.011
298.15 K, 101 kPa, x2 = 0.7977 | 1.289 ± 0.014
298.15 K, 101 kPa, x2 = 0.8 | 1.455 ± 0.012
298.15 K, 101 kPa, x2 = 0.85 | 1.56 ± 0.013
298.15 K, 101 kPa, x2 = 0.8955 | 1.57 ± 0.015
298.15 K, 101 kPa, x2 = 0.9 | 1.673 ± 0.013
298.15 K, 101 kPa, x2 = 0.95 | 1.794 ± 0.014
303.15 K, 101.3 kPa, x2 = 0.0434 | 0.401 ± 0.011
303.15 K, 101.3 kPa, x2 = 0.0863 | 0.4085 ± 0.011
303.15 K, 101.3 kPa, x2 = 0.1371 | 0.423 ± 0.011
303.15 K, 101.3 kPa, x2 = 0.1943 | 0.445 ± 0.012
303.15 K, 101.3 kPa, x2 = 0.2863 | 0.4936 ± 0.013
303.15 K, 101.3 kPa, x2 = 0.3859 | 0.5655 ± 0.015
303.15 K, 101.3 kPa, x2 = 0.4983 | 0.6748 ± 0.018
303.15 K, 101.3 kPa, x2 = 0.5806 | 0.7794 ± 0.021
303.15 K, 101.3 kPa, x2 = 0.7402 | 1.059 ± 0.028
303.15 K, 101.3 kPa, x2 = 0.828 | 1.257 ± 0.033
303.15 K, 101.3 kPa, x2 = 0.9016 | 1.447 ± 0.038
303.15 K, 101.3 kPa, x2 = 0.9307 | 1.606 ± 0.042
303.15 K, 101.3 kPa, x2 = 0.9459 | 1.57 ± 0.041
303.15 K, 101.3 kPa, x2 = 0.95 | 1.643 ± 0.043

ClCCCl + CCOC(C)=O
303.15 K, 101.3 kPa
Conditions | viscosity [mPa·s]
x2 = 0.099 | 0.679 ± 0.006
x2 = 0.2036 | 0.6354 ± 0.0058
x2 = 0.3005 | 0.602 ± 0.0056
x2 = 0.3976 | 0.5686 ± 0.0055
x2 = 0.4996 | 0.5353 ± 0.0054
x2 = 0.6025 | 0.5057 ± 0.0052
x2 = 0.6983 | 0.4784 ± 0.0052
x2 = 0.7998 | 0.4505 ± 0.0051
x2 = 0.9034 | 0.4236 ± 0.005
